Measured values: patent US7763728B2, “Tetrahydropyridothiophenes” (4SC AG, priority 2005, dated 2010)

What was measured:
[1] = system: RKO colon adenocarcinoma cells (RKOp27) arrested by the expression of ectopic p27Kip1; assay: Alamar Blue cell viability assay on RKOp27 cells arrested by p27Kip1 expression induced by Ponasterone A; format: cell-based; conditions: Homo sapiens, 72 hours incubation, 10 μM Ponasterone A, read-out: IC50 RKO p27 induced (arrested)
Experimental: To determine the cell cycle specific mode of action, subclones of RKO colon adenocarcinoma cells (RKOp27 or RKOp21 as described by Schmidt et al. in Oncogene 19, 2423-2429; 2000) are seeded into 96 well flat bottom plates at a density of 15000 cells per well in a volume of 50 μl per well in DMEM growth medium with 10% FCS containing 10 μM Ponasterone A. 24 hours after seeding the 50 μl each of the compound dilutions in DMEM medium are added into each well of the 96 Well plate. Each compound dilution is tested as quadruplicates. Wells containing untreated control cells are filled with 50 μl DMEM medium containing 1% DMSO. The cells are then incubated with the substances for 72 hours at 37° C. in a humidified atmosphere containing 5% carbon dioxide. To determine the viability of the cells, 10 μl of an Alamar Blue solution (Biosource) are added and the fluorescence was measured at an extinction of 544 nm and an emission of 590 nm. For the calculation of the cell viability the emission value from untreated cells is set as 100% viability and the emission rates of treated cells are set in relation to the values of untreated cells. Viabilities are expressed as % values. Viability is compared of proliferating cells grown in the absence of the inducer Ponasterone A, versus viability of cells arrested by the expression of ectopic p27Kip1 induced by Ponasterone A.

[2] = system: RKO (RKOp27) human colon adenocarcinoma cells; assay: Alamar Blue cell viability assay, anti-proliferative/cytotoxic activity on proliferating (uninduced) RKOp27 cells; format: cell-based; conditions: 72 hours incubation, absence of the inducer Ponasterone A, read-out: IC50 RKO p27 uninduced (proliferating)
Experimental: The anti-proliferative/cytotoxic activity of the compounds described herein, can be tested on subclones of RKO (RKOp27) human colon adenocarcinoma cells (Schmidt et al., Oncogene 19, 2423-2429; 2000) using the Alamar Blue cell viability assay (described in O'Brien et al. Eur J Biochem 267, 5421-5426, 2000). The compounds are dissolved as 20 mM solutions in dimethylsulfoxide (DMSO) and subsequently diluted in semi-logarithmic steps. DMSO dilutions are further diluted 1:100 into Dulbecco's modified Eagle's medium (DMEM) containing 10% fetal calf serum to a final concentration twice as much as the final concentration in the test. RKO subclones are seeded into 96 well flat bottom plates at a density of 5000 cells per well in a volume of 50 μl per well. 24 hours after seeding the 50 μl each of the compound dilutions in DMEM medium are added into each well of the 96 Well plate. Each compound dilution is tested as quadruplicates. Wells containing untreated control cells are filled with 50 μl DMEM medium containing 1% DMSO. The cells are then incubated with the substances for 72 hours at 37° C. in a humified atmosphere containing 5% carbon dioxide. To determine the viability of the cells, 10 μl of an Alamar Blue solution (Biosource) are added and the fluorescence is measured at an extinction of 544 nm and an emission of 590 nm. For the calculation of the cell viability the emission value from untreated cells is set as 100% viability and the emission rates of treated cells are set in relation to the values of untreated cells. Viabilities are expressed as % values.
The corresponding IC50 values of the compounds for anti-proliferative/cytotoxic activity are determined from the concentration-effect curves.
Representative IC50 values for anti-proliferation/cytotoxicity determined in the mentioned assay follow from the following table A, in which the numbers of the compounds correspond to the numbers of the examples.

Row | IC50 [1] | Structure (SMILES) | IC50 [2]
1 | > 100 µM | COc1ccc(C)cc1CCC(=O)Nc1sc2c(c1C#N)CCN(C(=O)CCc1cccnc1)C2 [Example 29, N-[3-Cyano-6-(3-pyridin-3-yl-propanoyl)-4,5,6,7-tetrahydro-thieno[2,3-c]pyridin-2-yl]-3-(2-methoxy-5-methyl-phenyl)-propionamide] | 0.3 to 2 µM
2 | ≥ 40 µM | COc1ccccc1C(C)CC(=O)Nc1sc2c(c1C#N)CCN(C(=O)Cn1cnc(C)c1)C2 (racemic) [Example 135, (RS)—N-{3-Cyano-6-[2-(4-methyl-imidazol-1-yl)-ethanoyl]-4,5,6,7-tetrahydro-thieno[2,3-c]pyridin-2-yl}-3-(2-methoxy-phenyl)-butyramide] | 0.3 to 2 µM
3 | ≥ 40 µM | CCOc1ccccc1CCC(=O)Nc1sc2c(c1C#N)CCN(C(=O)Cn1cnc(C)c1)C2 [Example 140, N-{3-Cyano-6-[2-(4-methyl-imidazol-1-yl)-ethanoyl]-4,5,6,7-tetrahydro-thieno[2,3-c]pyridin-2-yl}-3-(2-ethoxy-phenyl)-propionamide] | ≤ 0.3 µM
4 | ≥ 10 µM | COc1ccccc1CCC(=O)Nc1sc2c(c1C#N)CCN(C(=O)CCn1cc(C)nc1C)C2 [Example 161, N-{3-Cyano-6-[3-(2,4-dimethyl-imidazol-1-yl)-propanoyl]-4,5,6,7-tetrahydro-thieno[2,3-c]pyridin-2-yl}-3-(2-methoxy-phenyl)-propionamide] | 0.3 to 2 µM
5 | ≥ 40 µM | COc1ccc(C)cc1CCC(=O)Nc1sc2c(c1C#N)CCN(C(=O)CCn1ccnc1)C2 [Example 40, N-[3-Cyano-6-(3-imidazol-1-yl-propanoyl)-4,5,6,7-tetrahydro-thieno[2,3-c]pyridin-2-yl]-3-(2-methoxy-5-methyl-phenyl)-propionamide] | 0.3 to 2 µM
6 | ≥ 40 µM | COc1ccccc1CCC(=O)Nc1sc2c(c1C#N)CCN(C(=O)CCn1ccnc1)C2 [Example 101, N-[3-Cyano-6-(3-imidazol-1-yl-propanoyl)-4,5,6,7-tetrahydro-thieno[2,3-c]pyridin-2-yl]-3-(2-methoxy-phenyl)-propionamide] | ≤ 0.3 µM
7 | ≥ 10 µM | CCOc1ccccc1C(C)CC(=O)Nc1sc2c(c1C#N)CCN(C(=O)CCn1cnc(C)c1)C2 (racemic) [Example 153, (RS)—N-{3-Cyano-6-[3-(4-methyl-imidazol-1-yl)-propanoyl]-4,5,6,7-tetrahydro-thieno[2,3-c]pyridin-2-yl}-3-(2-ethoxy-phenyl)-butyramide] | 0.3 to 2 µM
8 | > 100 µM | COc1cccc(CCC(=O)Nc2sc3c(c2C#N)CCN(C(=O)CO)C3)c1 [Example 28, N-[3-Cyano-6-(2-hydroxy-ethanoyl)-4,5,6,7-tetrahydro-thieno[2,3-c]pyridin-2-yl]-3-(3-methoxy-phenyl)-propionamide] | 0.3 to 2 µM
9 | ≥ 10 µM | CCOc1ccccc1CCC(=O)Nc1sc2c(c1C#N)CCN(C(=O)CCc1nccn1C)C2 [Example 117, N-{3-Cyano-6-[3-(1-methyl-1H-imidazol-2-yl)-propanoyl]-4,5,6,7-tetrahydro-thieno[2,3-c]pyridin-2-yl}-3-(2-ethoxy-phenyl)-propionamide] | ≤ 0.3 µM
10 | > 100 µM | COc1cccc(CCC(=O)Nc2sc3c(c2C#N)CCN(C(=O)Cc2ccncc2)C3)c1 [Example 72, N-[3-Cyano-6-(2-pyridin-4-yl-ethanoyl)-4,5,6,7-tetrahydro-thieno[2,3-c]pyridin-2-yl]-3-(3-methoxy-phenyl)-propionamide] | ≤ 0.3 µM
11 | ≥ 10 µM | CCOc1ccccc1CCC(=O)Nc1sc2c(c1C#N)CCN(C(=O)CCn1ccnc1C)C2 [Example 109, N-{3-Cyano-6-[3-(2-methyl-imidazol-1-yl)-propanoyl]-4,5,6,7-tetrahydro-thieno[2,3-c]pyridin-2-yl}-3-(2-ethoxy-phenyl)-propionamide] | ≤ 0.3 µM
12 | > 100 µM | COc1ccc(C)cc1CCC(=O)Nc1sc2c(c1C#N)CCN(C(=O)CCc1ccncn1)C2 [Example 38, N-[3-Cyano-6-(3-pyrimidin-4-yl-propanoyl)-4,5,6,7-tetrahydro-thieno[2,3-c]pyridin-2-yl]-3-(2-methoxy-5-methyl-phenyl)-propionamide] | 0.3 to 2 µM
13 | > 100 µM | CCCC(=O)N1CCc2c(sc(NC(=O)CCc3ccccc3OCC)c2C#N)C1 [Example 24, N-(6-Butyryl-3-cyano-4,5,6,7-tetrahydro-thieno[2,3-c]pyridin-2-yl)-3-(2-ethoxy-phenyl)-propionamide] | ≤ 0.3 µM
14 | > 100 µM | COc1ccccc1CCC(=O)Nc1sc2c(c1C#N)CCN(C(=O)CCc1cccnc1)C2 [Example 1, N-[3-Cyano-6-(3-pyridin-3-yl-propanoyl)-4,5,6,7-tetrahydro-thieno[2,3-c]pyridin-2-yl]-3-(2-methoxy-phenyl)-propionamide] | ≤ 0.3 µM
15 | ≥ 40 µM | COc1ccccc1C(C)CC(=O)Nc1sc2c(c1C#N)CCN(C(=O)Cc1ccncc1)C2 (racemic) [Example 70, (RS)—N-[3-Cyano-6-(2-pyridin-4-yl-ethanoyl)-4,5,6,7-tetrahydro-thieno[2,3-c]pyridin-2-yl]-3-(2-methoxy-phenyl)-butyramide] | ≤ 0.3 µM
16 | > 100 µM | CCCC(=O)N1CCc2c(sc(NC(=O)CCc3cc(C)ccc3OC)c2C#N)C1 [Example 35, N-(6-Butyryl-3-cyano-4,5,6,7-tetrahydro-thieno[2,3-c]pyridin-2-yl)-3-(2-methoxy-5-methyl-phenyl)-propionamide] | ≤ 0.3 µM
17 | ≥ 10 µM | CCOc1ccccc1C(C)CC(=O)Nc1sc2c(c1C#N)CCN(C(=O)CCc1nccn1C)C2 (racemic) [Example 114, (RS)—N-{3-Cyano-6-[3-(1-methyl-1H-imidazol-2-yl)-propanoyl]-4,5,6,7-tetrahydro-thieno[2,3-c]pyridin-2-yl}-3-(2-ethoxy-phenyl)-butyramide] | 0.3 to 2 µM
18 | > 100 µM | COc1ccccc1CCC(=O)Nc1sc2c(c1C#N)CCN(C(=O)CCc1ccncc1)C2 [Example 122, N-[3-Cyano-6-(3-pyridin-4-yl-propanoyl)-4,5,6,7-tetrahydro-thieno[2,3-c]pyridin-2-yl]-3-(2-methoxy-phenyl)-propionamide] | ≤ 0.3 µM
19 | ≥ 40 µM | CCOc1ccccc1CCC(=O)Nc1sc2c(c1C#N)CCN(C(=O)Cc1cccnc1)C2 [Example 27, N-[3-Cyano-6-(2-pyridin-3-yl-ethanoyl)-4,5,6,7-tetrahydro-thieno[2,3-c]pyridin-2-yl]-3-(2-ethoxy-phenyl)-propionamide] | ≤ 0.3 µM
20 | ≥ 10 µM | CCOc1ccccc1C(C)CC(=O)Nc1sc2c(c1C#N)CCN(C(=O)CCc1ccccn1)C2 (racemic) [Example 137, (RS)—N-[3-Cyano-6-(3-pyridin-2-yl-propanoyl)-4,5,6,7-tetrahydro-thieno[2,3-c]pyridin-2-yl]-3-(2-ethoxy-phenyl)-butyramide] | ≤ 0.3 µM
21 | > 100 µM | COc1ccc(C)cc1CCC(=O)Nc1sc2c(c1C#N)CCN(C(=O)CCc1ccccn1)C2 [Example 96, N-[3-Cyano-6-(3-pyridin-2-yl-propanoyl)-4,5,6,7-tetrahydro-thieno[2,3-c]pyridin-2-yl]-3-(2-methoxy-5-methyl-phenyl)-propionamide] | 0.3 to 2 µM
